Laboratory results published in ChEMBL document CHEMBL1201862, “PubChem BioAssay data set” (2004).
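Tested at 5 concentrations; 48 h exposure; 96-well plates; endpoints linearly interpolated, else capped at highest concentration. At the GI50, growth is halved.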 The source made the active and inactive calls. Cut-off read from the data, not from the text of the source: active = GI50 up to about 1.1 µM and inactive = higher.

Legend:
Test in all cases: NCI-60 cell line screen, 48 h
SW-620 = system: SW-620
SNB-19 = system: SNB-19
OVCAR-4 = system: OVCAR-4
COLO 205 = system: COLO 205
HCT-116 = system: HCT-116
SK-MEL-28 = system: SK-MEL-28
HT-29 = system: HT-29
OVCAR-3 = system: OVCAR-3
NCI-H23 = system: NCI-H23
ACHN = system: ACHN
NCI-H522 = system: NCI-H522
HOP-62 = system: HOP-62
UACC-257 = system: UACC-257
HL-60 = system: HL-60
MOLT-4 = system: MOLT-4
A549 = system: A549
SN12C = system: SN12C
SK-OV-3 = system: SK-OV-3
UACC-62 = system: UACC-62
KM12 = system: KM12

SMILES | GI50 (SW-620) | GI50 (SNB-19) | GI50 (OVCAR-4) | GI50 (COLO 205) | GI50 (HCT-116) | GI50 (SK-MEL-28) | GI50 (HT-29) | GI50 (OVCAR-3) | GI50 (NCI-H23) | GI50 (ACHN) | GI50 (NCI-H522) | GI50 (HOP-62) | GI50 (UACC-257) | GI50 (HL-60) | GI50 (MOLT-4) | GI50 (A549) | GI50 (SN12C) | GI50 (SK-OV-3) | GI50 (UACC-62) | GI50 (KM12)
Cc1c(N)nc(C2CC(=O)N2CC(N)C(N)=O)nc1C(=O)NC(C(=O)NC(C)C(O)C(C)C(=O)NC(C(=O)NCCc1nc(-c2nc(C(=O)NCCNCC(C)O)cs2)cs1)C(C)O)C(OC1OC(CO)C(O)C(O)C1OC1OC(CO)C(O)C(OC(N)=O)C1O)c1c[nH]cn1 (stereo not given) | 13.9 µM (inactive) | 5.38 µM (inactive) | 7.57 µM (inactive) | 3.08 µM (inactive) | 0.148 µM (active) | 43.2 µM (inactive) | 21.3 µM (inactive) | 6.56 µM (inactive) | 0.437 µM (active) | < 0.0249 µM (active) | 0.462 µM (active) | 0.0556 µM (active) | 0.528 µM (active) | 5.75 µM (inactive) | 0.701 µM (active) | 3.28 µM (inactive) | 1.45 µM (inactive) | 8.41 µM (inactive) | 0.441 µM (active) | 19.9 µM (inactive)
[O-]c1c2c(nn1-c1ccc(F)cc1)c1ccccc1c[n+]2Cc1ccccc1 | 14.8 µM (inactive) | 30.8 µM (inactive) | 19.3 µM (inactive) | 1.76 µM (inactive) | 16.4 µM (inactive) | 15.3 µM (inactive) | 10.2 µM (inactive) | 7.69 µM (inactive) | 16.3 µM (inactive) | 1.77 µM (inactive) | 4.12 µM (inactive) | 16.5 µM (inactive) | 11.5 µM (inactive) | 0.327 µM (active) | 5.45 µM (inactive) | 12.8 µM (inactive) | 16.4 µM (inactive) | 14.6 µM (inactive) | 2 µM (inactive) | 1.43 µM (inactive)
C=C1CC2CCCC12C=O (stereo not given) | > 10 µM (inactive) | > 10 µM (inactive) | > 10 µM (inactive) | > 10 µM (inactive) | > 10 µM (inactive) | > 10 µM (inactive) | > 10 µM (inactive) | > 10 µM (inactive) | > 10 µM (inactive) | > 10 µM (inactive) | > 10 µM (inactive) | > 10 µM (inactive) | > 10 µM (inactive) | > 10 µM (inactive) | > 10 µM (inactive) | > 10 µM (inactive) | > 10 µM (inactive) | > 10 µM (inactive) | > 10 µM (inactive) | > 10 µM (inactive)
C=C(Br)CN(C#N)CC(=C)Br | > 100 µM (inactive) | > 100 µM (inactive) | > 100 µM (inactive) | > 100 µM (inactive) | > 100 µM (inactive) | > 100 µM (inactive) | > 100 µM (inactive) | > 100 µM (inactive) | > 100 µM (inactive) | > 100 µM (inactive) | > 100 µM (inactive) | > 100 µM (inactive) | > 100 µM (inactive) | 8.85 µM (inactive) | > 100 µM (inactive) | > 100 µM (inactive) | > 100 µM (inactive) | > 100 µM (inactive) | > 100 µM (inactive) | > 100 µM (inactive)
Oc1ccc2ccccc2c1Cc1c(O)ccc2ccccc12 | 16 µM (inactive) | 18.4 µM (inactive) | 13.1 µM (inactive) | 17.9 µM (inactive) | 16.1 µM (inactive) | 21.6 µM (inactive) | 22.1 µM (inactive) | 11.2 µM (inactive) | 16.1 µM (inactive) | 17.3 µM (inactive) | 10.7 µM (inactive) | 16.4 µM (inactive) | 19.5 µM (inactive) | 17.8 µM (inactive) | 15 µM (inactive) | 18.1 µM (inactive) | 16.2 µM (inactive) | 17.5 µM (inactive) | 14 µM (inactive) | 18.2 µM (inactive)
Brc1ccc2c([C@H]3CN[C@@H](c4c[nH]c5cc(Br)ccc45)CN3)c[nH]c2c1 | 1.71 µM (inactive) | 9.14 µM (inactive) | 1.9 µM (inactive) | 1.57 µM (inactive) | 1.66 µM (inactive) | 14.2 µM (inactive) | 1.92 µM (inactive) | 1.94 µM (inactive) | 2.54 µM (inactive) | 2.94 µM (inactive) | 1.57 µM (inactive) | 11.6 µM (inactive) | 14.9 µM (inactive) | 1.95 µM (inactive) | 2.29 µM (inactive) | 2.8 µM (inactive) | 5.19 µM (inactive) | 8.99 µM (inactive) | 9.82 µM (inactive) | 1.7 µM (inactive)
CCCC1CCC(=C2C(=O)CCC2=O)O1 (stereo not given) | > 100 µM (inactive) | > 100 µM (inactive) | > 100 µM (inactive) | > 100 µM (inactive) | > 100 µM (inactive) | > 100 µM (inactive) | > 100 µM (inactive) | > 100 µM (inactive) | > 100 µM (inactive) | > 100 µM (inactive) | > 100 µM (inactive) | > 100 µM (inactive) | > 100 µM (inactive) | 0.364 µM (active) | 0.849 µM (active) | > 100 µM (inactive) | > 100 µM (inactive) | > 100 µM (inactive) | > 100 µM (inactive) | > 100 µM (inactive)
Cn1c(SCc2c[nH]c3ccccc23)nnc1-c1ccc(Cl)cc1Cl | 19.5 µM (inactive) | 16.8 µM (inactive) | 12.4 µM (inactive) | 14 µM (inactive) | 23.4 µM (inactive) | 36.2 µM (inactive) | 17.3 µM (inactive) | 12.1 µM (inactive) | 23.8 µM (inactive) | 23.9 µM (inactive) | 12.7 µM (inactive) | 6.1 µM (inactive) | 19.9 µM (inactive) | 10.4 µM (inactive) | 7.36 µM (inactive) | 17.5 µM (inactive) | 17.1 µM (inactive) | 15.9 µM (inactive) | 12 µM (inactive) | 9.82 µM (inactive)
CCSC(=O)N1c2ccc(OC)cc2C=CC1C#N (stereo not given) | 0.00356 µM (active) | 0.0176 µM (active) | 0.308 µM (active) | 0.00298 µM (active) | 0.000509 µM (active) | 0.308 µM (active) | 0.00139 µM (active) | 0.001 µM (active) | 0.00509 µM (active) | 0.0041 µM (active) | 0.00698 µM (active) | 0.00841 µM (active) | < 0.01 µM (active) | 0.00347 µM (active) | 0.00345 µM (active) | 0.00565 µM (active) | 0.00782 µM (active) | 0.00425 µM (active) | 0.00877 µM (active) | 0.00449 µM (active)
CC(=O)C(=C(I)I)c1ccccc1 | 18.3 µM (inactive) | 18.5 µM (inactive) | 16.1 µM (inactive) | 15.5 µM (inactive) | 15.4 µM (inactive) | 19.5 µM (inactive) | 17.9 µM (inactive) | 16.7 µM (inactive) | 16.8 µM (inactive) | 18.3 µM (inactive) | 12.7 µM (inactive) | 20.9 µM (inactive) | 16.7 µM (inactive) | 24.7 µM (inactive) | 13.4 µM (inactive) | 24.6 µM (inactive) | 13.3 µM (inactive) | 41.9 µM (inactive) | 25.5 µM (inactive) | 20.9 µM (inactive)
C[O+]=C1C=CC(=C2SC(c3ccccc3)(c3ccccc3)c3ccccc32)C=C1.[O-][Cl+3]([O-])([O-])[O-] | 31.6 µM (inactive) | 39.8 µM (inactive) | 14.6 µM (inactive) | 17.3 µM (inactive) | 10.3 µM (inactive) | 21.1 µM (inactive) | 15 µM (inactive) | 16.1 µM (inactive) | 21.1 µM (inactive) | 24.8 µM (inactive) | 20.7 µM (inactive) | 28 µM (inactive) | 16.6 µM (inactive) | 17 µM (inactive) | 13.1 µM (inactive) | 22.5 µM (inactive) | 20 µM (inactive) | 38 µM (inactive) | 18.7 µM (inactive) | 15.7 µM (inactive)
COc1cc2c3c(cc(Cl)nc3c1OC)C(=O)C(=O)N2 | 5.85 µM (inactive) | 22.9 µM (inactive) | 1.6 µM (inactive) | 21.9 µM (inactive) | 4.33 µM (inactive) | 17.1 µM (inactive) | 22.4 µM (inactive) | 16.6 µM (inactive) | 16.7 µM (inactive) | 14.7 µM (inactive) | 4.22 µM (inactive) | 19.6 µM (inactive) | 8.39 µM (inactive) | 1.36 µM (inactive) | 2.34 µM (inactive) | 19.7 µM (inactive) | 8.99 µM (inactive) | 18 µM (inactive) | 6.28 µM (inactive) | 16.4 µM (inactive)
Oc1ccccc1/C=N/c1ccc(-c2nc3ccccc3s2)cc1 | 41.5 µM (inactive) | 48.4 µM (inactive) | 30.2 µM (inactive) | 19.6 µM (inactive) | 29.6 µM (inactive) | 41.7 µM (inactive) | 30.8 µM (inactive) | 20.6 µM (inactive) | 31.8 µM (inactive) | 22.4 µM (inactive) | 17.3 µM (inactive) | 19.1 µM (inactive) | 24 µM (inactive) | 11.8 µM (inactive) | 22.7 µM (inactive) | 36.7 µM (inactive) | 29.3 µM (inactive) | 27.2 µM (inactive) | 21.2 µM (inactive) | 22 µM (inactive)
COc1ccc(OC)c(C2CCc3nc4nc(N)nc(N)c4cc3C2)c1 (stereo not given) | 2.86 µM (inactive) | 2.43 µM (inactive) | 2.07 µM (inactive) | 3.32 µM (inactive) | 1.83 µM (inactive) | 2.4 µM (inactive) | 3.01 µM (inactive) | 1.82 µM (inactive) | 18.5 µM (inactive) | 12 µM (inactive) | 2.19 µM (inactive) | 2.13 µM (inactive) | 2.48 µM (inactive) | 2.64 µM (inactive) | 2.12 µM (inactive) | 14.7 µM (inactive) | 1.77 µM (inactive) | 4.1 µM (inactive) | 2.03 µM (inactive) | 2.29 µM (inactive)
